In series [1] the test system is type-I IFN response in AMO1 and NCI-H929 MM cells. Kind of series: Type-I IFN response in MM cells (RNA-seq, qRT-PCR, ELISA). As to conditions: H929; STING agonist 10 uM with BTZ 5 nM. In kind it is cell-based, human. As for the experimental part: Total RNA from multiple myeloma cells was prepared with TRIzol™ (ThermoFisher Scientific) and RNA Clean and Concentrator™-5 kit (Zymo Research) following the product instructions. RNA integrity and quantity was assessed by NanoDrop Spectrophotometer (ThermoFisher Scientific). For analysis of mRNA expression, oligo-dT-primed cDNA was obtained using the High Capacity cDNA Reverse Transcription Kit (ThermoFisher Scientific), and used as template to quantify: human and murine IFNA1 (Hs03044218_g1, Mm03030145_gH), human and murine IFNB1 (Hs01077958_s1, Mm00439552_s1), human and murine CXCL9 (Hs00171065_ml, Mm00434946_ml), and human and murine GAPDH (Hs02786624_g1, Mm99999915_g1). Analysis was determined by RT-PCR using TaqMan®Fast Universal PCR Master Mix on a 7500 Fast Real-Time PCR System (ThermoFisher Scientific). Comparative RT-PCR was performed in triplicate. Relative expression was calculated using the comparative […] (Ct) method.
AMO1^WT and STING^KO cells were either untreated or treated with BTZ for 24 h. Supernatant was collected, and secretion of CXCL9 chemokines was analyzed by MIG (CXCL9) Human Instant ELISA™ Kit (#BMS285INST, ThermoFisher Scientific).
AMO1 WT and STING^KO were cultured for 16 h in the presence of absence of BTZ (5 nM). RNA was extracted as previously described and submitted to NovaSeq RNAseq analysis followed by VIPER NGS Analysis pipeline (Cornwell et al. (2018) BMC Bioinformatics; 19(1):135). Lists of DEGs were applied to the GSEA software. RNAseq data have been submitted to Gene Expression Omnibus (accession number: GSE171837).
(Real-time PCR tracks product formation cycle by cycle.)

Another series deals with 5TGM1 MM cells. Kind of series: Cell Counting Kit-8 (CCK-8) proliferation assay. The conditions noted are these: ADU-S100 0-5 uM, 72 hr. In kind it is cell-based, murine. On the procedure:
Cell viability was evaluated by Cell Counting Kit-8 (CCK-8) assay (Dojindo Molecular Technologies).
(In general: Tetrazolium assays rely on reduction of a dye to a coloured formazan, in cell work by metabolically active cells.)

Series [2] concerns 5TGM1 tumors. Briefly: In vivo tumor growth analysis. On the set-up: species or system mouse. On the procedure: 6-week old female immunodeficient NOD.CB17-Prkdcscid/NCrCrl (NOD/SCID) mice (Charles River) and immunocompetent C57BL/KaLwRijHsd (Envigo) mice were housed in an animal facility at the Dana-Farber Cancer Institute (DFCI). All experiments were performed after approval by the Animal Ethics Committee of the DFCI and performed using institutional guidelines.
To assess the effect of BTZ in the absence of an immune system, NOD/SCID mice were subcutaneously injected with 1×10^6 5TGM1 WT cells in a 1:1 ratio with Matrigel® (Corning); to assess BTZ in an immunocompetent host, C57BL/KaLwRijHsd mice were injected with 1×10^6 5TGM1 either WT or calrKO in the same ratio with Matrigel®. When tumor became measurable, mice (5/group) were randomized to receive either PBS or BTZ administered intra peritoneally (i.p.) 0.5 mg/kg twice/week for 2 weeks. Tumor sizes were measured and mice were sacrificed when tumors reached 2 cm in diameter or ulceration or major compromise in quality of life. A parallel experiment was performed to allow for tumor harvesting after two injections i.p. of BTZ for RNA-seq analysis, as detailed below.
6-week old female immunodeficient NOD.CB17-Prkdcscid/NCrCrl (NOD/SCID) (Charles River) and immunocompetent C57BL/KaLwRijHsd (Envigo) mice were housed in the animal facility at DFCI. All experiments were performed after approval by the Animal Ethics Committee of the DFCI and performed using institutional guidelines.
(§1) NOD/SCID and C57BL/KaLwRijHsd mice were subcutaneously (sc) injected with 1×10^6 5TGM1 either WT or Calr^KO cells in PBS. When tumor became measurable, mice were randomized to receive either PBS or BTZ administered intra peritoneally (i.p.) 0.5 mg/kg twice/week for 2 weeks. Tumor sizes were measured as previously described (46), and mice were sacrificed when tumors reached 2 cm in diameter or ulceration or major compromise in quality of life. A parallel experiment was performed to allow for tumor harvesting after two injections ip of BTZ for RNA-seq analysis, as detailed below. For BTZ and STING agonist combination studies, C57BL/KaLwRijHsd (n=5/group) and SCID/NOD (n=6/group) mice bearing 5TGM1 WT and C57BL/KaLwRijHsd mice (n=5/group) bearing 5TGM1 Sting^KO tumors were randomized to receive: PBS, BTZ (0.375 mg/kg twice a week for 2 weeks, i.p.), ADU-S100 (100 μg) administered in the peritumoral area (day 1 and 2), or a combination. Tumor sizes were measured as described above. A parallel experiment in C57BL/KaLwRijHsd mice was performed to allow for tumor harvesting after one administration of either BTZ or ADU-S100. Tumors were fixed in 10% formalin for 24 h, and then maintained in 70% ethanol prior to paraffin embedding and processing for IHC to detect CD3 (#nb600 Ab, Novus Bio).

The test system of another series is cGAS/STING pathway. Briefly: Western blot of cGAS/STING pathway. In kind it is cell-based, human. As to conditions: AMO1; ADU-S100 10 uM with BTZ 5 nM. As for the experimental part: Cell lysis was performed in RIPA buffer (Boston Bio Products) supplemented with Halt protease and phosphatase inhibitor cocktail (ThermoFisher Scientific). SDS-PAGE was performed on NuPage Bis-Tris gels (ThermoFisher Scientific) using MOPS or MES running buffer. Gels were dry transferred onto 0.45 μm nitrocellulose membranes using the iBlot® Dry Blotting System (ThermoFisher Scientific). The following Abs were purchased from Cell Signaling Technology: EIF2A (#5324), p-EIF2A (#3398), ATF4 (#11815), CHOP (2895), CALR (#12238), cGAS (#15102), TBK1 (#3504), pTBK1 (#5483), pIRF3 (#29047), STING (#13647). GAPDH (#2118) and B-ACTIN (#4970) were used as loading controls.
A general note: In western blotting, separated proteins are transferred to a membrane and probed.

Series [3] has as its system 5TGM1 tumors. Briefly: IHC CD3 staining of tumors. It counts as in vivo, mouse. As to conditions: tumors retrieved after one administration of the drugs. As for the experimental part: as §1
Another series has as its system MM cell lines. As to conditions: different MM cell lines; cited from earlier work.
A further series concerns HR-SMM. The conditions noted are these: cited from earlier work.
Series [4] concerns AMO1, H929 and KMS11 MM cells. Kind of series: Phagocytosis assay of MM cells by monocyte-derived DCs. In kind it is cell-based, human. As to conditions: AMO1 GABARAP^KO after BTZ, rCALR 3 ug/10^6 cells. As for the experimental part:
Mo-DCs were generated from CD14+ peripheral blood monocytes were positively selected using magnetic beads (Miltenyi Biotec) and cultured for 6 days in mo-DC differentiation medium containing GM-CSF and IL-4 (130-094-812; Miltenyi Biotec) to generate Mo-DCs. AMO1, KMS11 and H929 cells lines, as well as patient MM cells, were stained with CellTrace™ Far Red (ThermoFisher Scientific), cultured with or without BTZ (for 16 h), and then incubated in 48-well plates for 4 h at 1:1 ratio with CellTrace™ CFSE stained Mo-DCs. Cells were then collected, and phagocytosis analysis was performed by flow cytometry and confocal microscopy. Analagous phagocytosis experiments was performed using 5TGM1 murine MM and immature murine DC line JAWSII.
Collected cells were analyzed using the BD LRSFortessa™ X-20 flow cytometer. Mo-DCs that engulfed MM cells were CFSE and FAR-RED double positive. Fold increase in percentage of double positive DCs after co-culture with BTZ treated vs untreated MM cells was compared.
Mo-DCs were generated from CD14+ peripheral blood monocytes from healthy donors, positively selected using magnetic beads (Miltenyi Biotec), cultured for 6 days in mo-DC differentiation medium containing GM-CSF and IL-4 (130-094-812; Miltenyi Biotec). AMO1 and NCI-H929 cells lines, as well as patient MM cells, were stained with CellTrace™ Far Red (ThermoFisher Scientific), cultured with or without BTZ for 16 h, and then incubated in 48-well plates for 4 h at 1:1 ratio with CellTrace™ CFSE stained Mo-DCs. Cells were then collected, and phagocytosis analysis was performed by flow cytometry and confocal microscopy. Analagous phagocytosis experiments were performed using 5TGM1 murine multiple myeloma and JAWSII cell line that was used as source of immature murine DCs.
Flow cytometry-based assay: Collected cells were analyzed using the BD LRSFortessa X-20 flow cytometer. Mo-DCs that engulfed MM cells were CFSE and FAR-RED double positive. Fold increase in percentage of double positive DCs after co-culture with BTZ treated vs untreated MM cells was compared.

“Also recorded” adds a separate entry of the source.

Consider `Nc1ncnc2c1ncn2[C@@H]1O[C@@H]2COP(=O)([S-])O[C@@H]3[C@H](O)[C@@H](COP([O-])(=S)O[C@H]2[C@H]1O)O[C@H]3n1cnc2c(N)ncnc21.[Na+].[Na+]` (some centres unmarked) [ADU-S100], for which, in series [1], the “transcription of IFNA1 and IFNB1” value was “increased transcription of IFNA1 and IFNB1”. For the same molecule, the “direct killing of MM cells (live cells vs untreated)” value in the series with 5TGM1 MM cells is “sensitive to a direct killing”. In addition, in the series with 5TGM1 tumors [2] (5TGM1 Sting^KO tumors in immunocompetent mice), the anti-tumor activity result was “still retained a partial anti-multiple myeloma activity”. Moreover, in the series with 5TGM1 tumors [2] (5TGM1 WT in immunodeficient NOD/SCID mice, BTZ 0.375 mg/kg, ADU-S100 100 ug day 1 and 2), the anti-tumor effects entry was “abrogated the anti-tumor effects”. Also, the “phosphorylated TBK1” value in the series on cGAS/STING pathway is on record as “higher levels of phosphorylated TBK1 kinase”. Moreover, the “CD3+ T cell infiltration within tumors (IHC)” value with 5TGM1 tumors [3] is given as “increased CD3+ T cell infiltration within tumors”.

For the molecule `CC(C)C[C@H](NC(=O)[C@H](CCc1ccccc1)NC(=O)CN1CCOCC1)C(=O)N[C@@H](Cc1ccccc1)C(=O)N[C@@H](CC(C)C)C(=O)[C@@]1(C)CO1` [carfilzomib], the CRT exposure entry in the series with MM cell lines was “shown to expose CRT in different MM cell lines”.

For `Nc1cccc2c1CN(C1CCC(=O)NC1=O)C2=O` (centres unmarked) [lenalidomide], the “progression of HR-SMM” value in the series on HR-SMM (lenalidomide alone) is “delay progressions of HR-SMM”. Further, the “treatment discontinuation and secondary cancers” value with HR-SMM (lenalidomide cohort) is “high rate of treatment discontinuation and secondary cancers”.

B1: rCRT: recombinant calreticulin purchased from Sigma (SRP8001) (protein)
chain: EPAVYFKEQFLDGDGWTSRWIESKHKSDFGKFVLSSGKFYGDEEKDKGLQTSQDARFYALSASFEPFSNKGQTLVVQFTVKHEQNIDCGGGYVKLFPNSLDQTDMHGDSEYNIMFGPDICGPGTKKVHVIFNYKGKNVLINKDIRCKDDEFTHLYTLIVRPDNTYEVKIDNSQVESGSLEDDWDFLPPKKIKDPDASKPEDWDERAKIDDPTDSKPEDWDKPEHIPDPDAKKPEDWDEEMDGEWEPPVIQNPEYKGEWKPRQIDNPDYKGTWIHPEIDNPEYSPDPSIYAYDNFGVLGLDLWQVKSGTIFDNFLITNDEAYAEEFGNETWGVTKAAEKQMKDKQDEEQRLKEEEEDKKRKEEEEAEDKEDDEDKDEDEEDEEDKEEDEEEDVPGQAKDEL
Consider B1, for which the “phagocytosis of MM cells by DCs with recombinant calreticulin add-back” value was “confirmed the on-target effect GABARAP^KO; also recorded: restored phagocytosis of MM cells after BTZ” in series [4] and “increases the immune response against the cancer cells” in series [4] (listed as recombinant CRT).

These data come from patent US12109266B2, “Modulating gabarap to modulate immunogenic cell death” (Dana-Farber Cancer Institute, Inc., priority 2020, dated 2024).
